Results published in article PMC9246196, “Novel pyrrolopyrimidine derivatives: design, synthesis, molecular docking, molecular simulations and biological evaluations as antioxidant and anti-inflammatory agents” (Journal of Enzyme Inhibition and Medicinal Chemistry, 2022).
≈ marks a conversion by molar mass, not a printed value.

Columns and labels:
[1] = DPPH radical scavenging assay; type: biochemical
Description: DPPH scavenging potential of samples was determined with a slightly modified method[47]^,[48]. Each sample was prepared at 500 ppm. Serial concentrations of samples were prepared (200 µL, 400 µL and 800 µL). Methanol was added to complete the total volume to 1 mL and all the samples were vortexed well. 1 mL of 0.1 mM DPPH methanolic solution was added to each diluted sample. All the samples were vortexed again, then left to stand for 30 min in the dark at environment temperature. The absorption of the developed colour appeared against the blank reagent was measured at 517 nm using a spectrophotometer. BHT was used as a standard antioxidant. The capability to scavenge DPPH radical was estimated using the following equation: DPPH scavenging ability (% inhibition)=[(A0−A*)/A0]×100
A0 is Control absorption and A* is sample absorption.

[2] = system: RAW 264.7 cells; experiment: MTT cytotoxicity against RAW 264.7 macrophage cells; type: cell-based; conditions: RAW 264.7, MTT
Description: The macrophage cell line, RAW 264.7 was obtained from the ATCC (American type culture collection). The cells were cultured in RPMI 1640 medium (Roswell Park Memorial Institute) and supplemented with 1% pen/strep and 10% heat-inactivated foetal bovine serum. The cells were incubated, in a humidified incubator, in an atmosphere of 5% CO2 at 37 °C and were subculture twice before the experiment.
(§1) RAW 264.7 cells were suspended in a RPMI medium. After 24 h of seeding 1 × 10^5 cells per well (in 96 well plates) and incubated for 24 h for the experiments. The cells were then treated with the samples at concentrations of 100, 50, 25 and 12.5 μg/mL and incubated for 1 h. They were then stimulated with 10 μg/mL of LPS for another 24 h. The supernatant was gently transferred to new 96-well plates and used for NO determination, while the cells that remained in the old plate were used for the MTT assay of cell viability. Samples (stock) were dissolved in DMSO, and the working samples were prepared in the media. Cell viability was assessed by the mitochondrial dependent reduction of yellow MTT (3–(4,5-dimethylthiazol-2-yl)-2,5-diphenyltetrazolium bromide) to purple formazan.
The percentage of change in viability was calculated according to the formula: [(Reading of extract /Reading of negative control )−1]×100.

[3] = system: LPS-stimulated NO production by RAW 264.7 macrophages; experiment: Nitric oxide assay (Griess) in LPS-induced RAW 264.7 macrophages; type: cell-based; conditions: Mus musculus; for IC50: RAW264.7, LPS-induced RAW 264.7, read-out: NO inhibition IC50; for inhibition at 12.5 µg/mL / inhibition at 25 µg/mL / inhibition at 50 µg/mL / inhibition at 100 µg/mL: RAW264.7, LPS 10 µg/mL, read-out: NO % inhibition (mean ± SEM)
Description: as §1
Nitric oxide production was assayed by measuring nitrite in the supernatants of cultured LPS-RAW 264.7 cells. The assay was carried out as described previously with slight modification[48]^,[50]. After pre-incubation of RAW 264.7 cells (1 × 10^5 cells/mL) with LPS (10 µg/mL) for 24 h, the amount of nitrite, a stable metabolite of NO used as an indicator of NO production in the culture medium was measured using the Griess reagent (1% sulphanilamide and 0.1% naphthyl ethylenediamine dihydrochloride in 2.5% phosphoric acid). A volume of 50 µL of the cell culture medium was mixed with 50 µL of the Griess reagent. Subsequently, the mixture was incubated at room temperature for 15 min and the absorbance was measured at 540 nm by a microplate reader. Fresh culture medium was used as a blank in every experiment. The quantity of nitrite was determined from a sodium nitrite standard curve as expressed in the equation. Nitric oxide inhibition (%)=(optical denisty of control−optical denisty of test /optical denisty of control ) ×100.

Cc1cc(C)n(-c2ncnc3c2c(-c2ccccc2)cn3-c2cccc(Cl)c2)n1 [7a, 7–(3-Chlorophenyl)-4–(3,5-dimethyl-pyrazol-1-yl)-5-phenyl-pyrrolo[2,3-d]pyrimidine]
melting point: 180 to 182 °C

Clc1cccc(-n2cc(-c3ccccc3)c3c(N/N=C/c4ccccc4)ncnc32)c1 [8a, N-[(E)-benzylideneamino]-7–(3-chlorophenyl)-5-phenyl-pyrrolo[2,3-d]pyrimidin-4-amine]
melting point: 187 to 189 °C

Cc1nnc2c3c(-c4ccccc4)cn(-c4cccc(Cl)c4)c3ncn12 [5a, 7–(3-Chlorophenyl)-3-methyl-9-phenyl-7H-pyrrolo[3,2-e][1,2,4]triazolo[4,3-c] pyrimidine]
melting point: 227 to 229 °C

Cc1cc(C)n(-c2ncnc3c2c(-c2ccccc2)cn3-c2ccc(Cl)cc2)n1 [7b, 7–(4-Chlorophenyl)-4–(3,5-dimethyl-pyrazol-1-yl)-5-phenyl-pyrrolo[2,3-d]pyrimidine]
melting point: 199 to 201 °C

Clc1ccc(-n2cc(-c3ccccc3)c3c(N/N=C/c4ccccc4)ncnc32)cc1 [8b, N-[(E)-benzylideneamino]-7–(4-chlorophenyl)-5-phenyl-pyrrolo[2,3-d]pyrimidin-4-amine]
melting point: 172 to 174 °C

Cc1cc(C(C)(C)C)c(O)c(C(C)(C)C)c1 [BHT, butylated hydroxytoluene, reference compound]
DPPH radical-scavenging IC50 [1]: 128.77 µg/mL
DPPH % Inhibition (mean ± SEM) ([1]; conc. 100 (µg/mL)): 40.03 ± 0.39%
DPPH % Inhibition (mean ± SEM) ([1]; conc. 200 (µg/mL)): 76.81 ± 0.21%
DPPH % Inhibition (mean ± SEM) ([1]; conc. 400 (µg/mL)): 90.07 ± 0.26%

O=c1[nH]nc2c3c(-c4ccccc4)cn(-c4cccc(Cl)c4)c3ncn12 [6a, 7–(3-Chlorophenyl)-9-phenyl-7H-pyrrolo[3,2-e][1,2,4]triazolo[4,3-c]pyrimidin-3-one]
melting point: 226 to 228 °C

Clc1ccc(/C=N/Nc2ncnc3c2c(-c2ccccc2)cn3-c2ccc(Cl)cc2)cc1 [8d, 7–(4-Chlorophenyl)-N-[(E)-(4-chlorophenyl)methyleneamino]-5-phenyl-pyrrolo[2,3-d]pyrimidin-4-amine]
melting point: 187 to 189 °C

Clc1ccc(-n2cc(-c3ccccc3)c3c2ncn2cnnc32)cc1 [3b, 7–(4-Chlorophenyl)-9-phenyl-7H-pyrrolo[3,2-e][1,2,4]triazolo[4,3-c] pyrimidine]
melting point: 190 to 192 °C

S=c1[nH]nc2c3c(-c4ccccc4)cn(-c4ccc(Cl)cc4)c3ncn12 [4b, 7–(4-Chlorophenyl)-9-phenyl-7H-pyrrolo[3,2-e][1,2,4]triazolo[4,3-c]pyramid in-3-thione]
DPPH radical-scavenging IC50 [1]: 129.38 µg/mL
DPPH % Inhibition (mean ± SEM) ([1]; conc. 100 (µg/mL)): 37.97 ± 0.71%
DPPH % Inhibition (mean ± SEM) ([1]; conc. 200 (µg/mL)): 77.76 ± 1.60%
DPPH % Inhibition (mean ± SEM) ([1]; conc. 400 (µg/mL)): 79.55 ± 1.06%
Cytotoxicity of raw cells% (mean ± SEM) ([2]; 12.5 µg/mL): 0%
Cytotoxicity of raw cells% (mean ± SEM) ([2]; 25 µg/mL): 69.6 ± 1.3%
Cytotoxicity of raw cells% (mean ± SEM) ([2]; 50 µg/mL): 75.2 ± 2.5%
Cytotoxicity of raw cells% (mean ± SEM) ([2]; 100 µg/mL): 85.4 ± 0.6%
IC50 [3]: 64.8 µg/mL (≈ 171 µM)
inhibition at 12.5 µg/mL [3]: 39.8 ± 1.9%
inhibition at 25 µg/mL [3]: 52.8 ± 1.1%
inhibition at 50 µg/mL [3]: 54.3 ± 1.6%
inhibition at 100 µg/mL [3]: 58.1 ± 3.5%
melting point: 187 to 189 °C

Clc1ccc(/C=N/Nc2ncnc3c2c(-c2ccccc2)cn3-c2cccc(Cl)c2)cc1 [8c, 7–(3-Chlorophenyl)-N-[(E)-(4-chlorophenyl)methyleneamino]-5-phenyl-pyrrolo[2,3-d]pyrimidin-4-amine]
melting point: 247 to 249 °C

NNc1ncnc2c1c(-c1ccccc1)cn2-c1ccc(Cl)cc1 [2b, (7–(4-Chlorophenyl)-5-phenyl-7H-pyrrolo[2,3-d]pyrimidin-4-yl)-hydrazine]
melting point: 217 to 219 °C

NNc1ncnc2c1c(-c1ccccc1)cn2-c1cccc(Cl)c1 [2a, (7–(3-Chlorophenyl)-5-phenyl-7H-pyrrolo[2,3-d]pyrimidin-4-yl)-hydrazine]
melting point: 204 to 206 °C

COc1ccc(/C=N/Nc2ncnc3c2c(-c2ccccc2)cn3-c2ccc(Cl)cc2)cc1 [8f, 7–(4-Chlorophenyl)-N-[(E)-(4-methoxyphenyl)methyleneamino]-5-phenyl-pyrrolo[2,3-d]pyrimidin-4-amine]
melting point: 194 to 196 °C

Cc1nnc2c3c(-c4ccccc4)cn(-c4ccc(Cl)cc4)c3ncn12 [5b, 7–(4-Chlorophenyl)-3-methyl-9-phenyl-7H-pyrrolo[3,2-e][1,2,4]triazolo[4,3-c] pyrimidine]
melting point: 201 to 203 °C

Clc1cccc(-n2cc(-c3ccccc3)c3c2ncn2cnnc32)c1 [3a, 7–(3-Chlorophenyl)-9-phenyl-7H-pyrrolo[3,2-e][1,2,4]triazolo[4,3-c] pyrimidine]
DPPH radical-scavenging IC50 [1]: 160.05 µg/mL
DPPH % Inhibition (mean ± SEM) ([1]; conc. 100 (µg/mL)): 39.56 ± 0.88%
DPPH % Inhibition (mean ± SEM) ([1]; conc. 200 (µg/mL)): 58.09 ± 1.50%
DPPH % Inhibition (mean ± SEM) ([1]; conc. 400 (µg/mL)): 62.51 ± 0.32%
Cytotoxicity of raw cells% (mean ± SEM) ([2]; 12.5 µg/mL): 0%
Cytotoxicity of raw cells% (mean ± SEM) ([2]; 25 µg/mL): 76.5 ± 1.9%
Cytotoxicity of raw cells% (mean ± SEM) ([2]; 50 µg/mL): 78.7 ± 2.2%
Cytotoxicity of raw cells% (mean ± SEM) ([2]; 100 µg/mL): 92.0 ± 1.6%
IC50 [3]: 57.3 µg/mL (≈ 166 µM)
inhibition at 12.5 µg/mL [3]: 40.6 ± 2.6%
inhibition at 25 µg/mL [3]: 53.1 ± 1.3%
inhibition at 50 µg/mL [3]: 62.5 ± 1.2%
inhibition at 100 µg/mL [3]: 65.6 ± 1.2%
melting point: 176 to 178 °C

COc1ccc(/C=N/Nc2ncnc3c2c(-c2ccccc2)cn3-c2cccc(Cl)c2)cc1 [8e, 7–(3-Chlorophenyl)-N-[(E)-(4-methoxyphenyl)methyleneamino]-5-phenyl-pyrrolo[2,3-d]pyrimidin-4-amine]
DPPH radical-scavenging IC50 [1]: 122.07 µg/mL
DPPH % Inhibition (mean ± SEM) ([1]; conc. 100 (µg/mL)): 40.63 ± 2.13%
DPPH % Inhibition (mean ± SEM) ([1]; conc. 200 (µg/mL)): 82.15 ± 0.14%
DPPH % Inhibition (mean ± SEM) ([1]; conc. 400 (µg/mL)): 85.22 ± 0.17%
Cytotoxicity of raw cells% (mean ± SEM) ([2]; 12.5 µg/mL): 0%
Cytotoxicity of raw cells% (mean ± SEM) ([2]; 25 µg/mL): 65 ± 3.1%
Cytotoxicity of raw cells% (mean ± SEM) ([2]; 50 µg/mL): 73.1 ± 1.3%
Cytotoxicity of raw cells% (mean ± SEM) ([2]; 100 µg/mL): 77.7 ± 1.5%
IC50 [3]: ~53 µg/mL (≈ 117 µM)
inhibition at 12.5 µg/mL [3]: 38.7 ± 1.7%
inhibition at 25 µg/mL [3]: 66.5 ± 3.7%
inhibition at 50 µg/mL [3]: 67.5 ± 1.8%
inhibition at 100 µg/mL [3]: 71.8 ± 1%
melting point: 167 to 169 °C

O=c1[nH]nc2c3c(-c4ccccc4)cn(-c4ccc(Cl)cc4)c3ncn12 [6b, 7–(4-Chlorophenyl)-9-phenyl-7H-pyrrolo[3,2-e][1,2,4]triazolo[4,3-c]pyrimidin-3-one]
melting point: 233 to 235 °C
